In patent US20030049807A1, “Micro-organism possessing enantioselective and regioselective nitrile hydratase/amidase activities” (priority 2001, published 2003):

What was measured:
[1] = system: nitrile hydratase/amidase activity of bacterial pellet of strain NCIMB 41108; assay: Enzymatic activity of the whole-cell biocatalyst (wet bacterial pellet) towards nitrile/amide substrates, HPLC or GC; type: cell-based, Agrobacterium radiobacter 30″60; conditions: 30° C.; for enzymatic activity: 50 mg substrate, 250 mg wet pellet
Procedure: The enzymatic activity was evaluated using a bacterial pellet obtained after fermentation for 48 hours in fermentation medium as described below. Briefly, the culture was amplified from a single colony to begin with in a small volume of inoculating medium and then, for preparative purposes, in 100 ml of fermentation medium.
Fermentation medium: MgSO4 (0.5 g l^−1), ,CaCl2.6H2O (0.1 g l^−1), FeSO4 (0.4 g l^−1), CoCl2 (0.1 g l^−1), MnSO4 (0.01 g l^−1), (NH4)2SO4 (5 g l^−1), Yeast Extract (10 g l^31 1). The inducer, or the inducers, were added to the fermentation medium alone or in combination, sterilely, to a final concentration comprised of between 0.5-5 g/L. In particular, if not stated differently, valeronitrile, N-butyronitrile, isobutyronitrile and ε-caprolactam were used at a concentration respectively of 2.5 g/l and added in a single solution at the start of the process. To measure the basal activity of the strain 41108, no inducer was added to the fermentation medium.
Inoculation. […]
Reaction scheme. […] At preset time intervals, aliquots of the mixture were sterilely removed with a syringe, using a Minisart RC 25 filter 0,22 μm (Sartorius, Germany) and directly analysed by HPLC. The enzymatic activity was determined by the mean activity measured in the initial, linear phase of the conversion curve, relative to the wet weight of the bacterial paste. […]
Evaluation of the conversion percentages and of the enantiomeric excess. The percentage conversion of the substrate was measured by reverse phase HPLC using a reverse phase column of dimensions: 250×4.6 mm; 10 μm (Lichrosorb 10 RP18), and phosphate buffer at various percentages (10 mM, pH 2.5 e 3.5) with acetonitrile at 40 or 50% depending on the molecule to be detected. […] The e.e. values of the reaction products obtained from benzoylphenylpropionitrile were determined by HPLC fitted with a chiral column (dimensions: 100×4 mm; Chromtech AGP-column) and phosphate buffer used as eluent (10 mM, pH 7.0) with isopropanol (1%, v/v) and dimethyloctylamine (0,02%, v/v). […]

[2] = system: nitrile-hydratase/amidase activity of the wild type strain; assay: Nitrile-hydratase/amidase activity of the wild type parent strain after induction with valeronitrile; type: cell-based, Agrobacterium radiobacter; conditions: wild type strain sub-cultured with butyronitrile, induced with valeronitrile
Procedure: The parent strain, characterised as Agrobacterium radiobacter, was isolated from a crude bacterial extract with antibiotic activity. In order to determine activity towards nitrilic substrates, it was sub-cultured in medium containing butyronitrile and after some passages and induction with valeronitrile, a weak nitrile-hydratase/amidase activity was measured on benzoylphenylpropionitrile (BPN) of the wild type strain as such selected. To obtain a semi-constitutive strain, an aliquot of wild type parent strain was subjected to a treatment of mutagenesis, constituted by two treatment cycles with ethylmethanesulphonate, one cycle with nitrosoguanidine and two of mutagenesis with UV irradiation.

CC(C#N)c1cccc(Oc2ccccc2)c1 (stereo not drawn) [α-methyl-3-phenoxibenzen-acetonitrile] was tested, and the enzymatic activity ([1]; pellet induced with valeronitrile 0,25%, 1 hour) was 5.23 IU g^−1 of wet cells.
CC(C#N)c1ccc(-c2ccccc2)c(F)c1 (stereo not drawn) [2-fluoro-α-methyl[1,1′-diphenyl]-4-acetonitrile] was tested, and the enzymatic activity ([1]; pellet induced with valeronitrile 0,2%, 24 hours) was 0.26 IU g^−1 of wet cells.
CC(C#N)c1ccccc1 (stereo not drawn) [α-methylbenzyl cyanide] was tested, and the “rate of transformation, times higher” value ([1]; pellet induced with valeronitrile and ε-caprolactam 0,25%, comparator not given) was “approximately 20 times”.
With CC(C#N)c1cccc(C(=O)c2ccccc2)c1 (racemic) [benzoylphenylpropionitrile, 2-(3-benzoylphenyl)propionitrile] the nitrile-hydratase/amidase activity [2] was “weak”.
